Measurements as given in US6436649B1, “Method for detecting and/or quantifying a hapten in a homogeneous phase and device for implementation thereof” (priority 1996, dated 2002).
Like-named read-outs stand apart in the source and are kept apart here.

Columns and labels:
[1] = target: P99/Q908R β-lactamases (Enterobacter cloacae, UniProt P05364); conditions: cited from earlier work
[2] = target: E. Coli β-lactamase (Escherichia coli, UniProt P00811); conditions: enzyme E. Coli; cited from earlier work
E. Coli β-lactamase, sequence (P00811 20-377): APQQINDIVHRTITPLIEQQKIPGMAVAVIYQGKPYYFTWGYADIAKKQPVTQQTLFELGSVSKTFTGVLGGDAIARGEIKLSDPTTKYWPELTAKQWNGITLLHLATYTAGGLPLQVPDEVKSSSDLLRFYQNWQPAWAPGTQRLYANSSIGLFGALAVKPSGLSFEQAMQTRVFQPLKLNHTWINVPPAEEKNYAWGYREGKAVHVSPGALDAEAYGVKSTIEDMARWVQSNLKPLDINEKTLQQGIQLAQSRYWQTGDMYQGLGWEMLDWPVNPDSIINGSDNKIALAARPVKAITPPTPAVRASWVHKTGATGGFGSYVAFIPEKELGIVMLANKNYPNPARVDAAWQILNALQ

[3] = test system: P99/Q908E/E. Coli β-lactamases; conditions: enzymes P99/Q908E/E. Coli; cited from earlier work
[4] = target: T1, type C β-lactamases (Enterobacter cloacae, UniProt P05364); conditions: Ki of the parent inhibitor; cited from earlier work
T1 construct: Ki

[5] = test system: T2, type C β-lactamases; conditions: selected inhibitors, over the β-lactamases; cited from earlier work
T2 construct: rows headed: Km; kcat

[6] = target: Citro.F. β-lactamase (Citrobacter freundii, UniProt P05193); conditions: enzyme Citro.F.; cited from earlier work
Citro.F. β-lactamase, sequence (P05193 21-381): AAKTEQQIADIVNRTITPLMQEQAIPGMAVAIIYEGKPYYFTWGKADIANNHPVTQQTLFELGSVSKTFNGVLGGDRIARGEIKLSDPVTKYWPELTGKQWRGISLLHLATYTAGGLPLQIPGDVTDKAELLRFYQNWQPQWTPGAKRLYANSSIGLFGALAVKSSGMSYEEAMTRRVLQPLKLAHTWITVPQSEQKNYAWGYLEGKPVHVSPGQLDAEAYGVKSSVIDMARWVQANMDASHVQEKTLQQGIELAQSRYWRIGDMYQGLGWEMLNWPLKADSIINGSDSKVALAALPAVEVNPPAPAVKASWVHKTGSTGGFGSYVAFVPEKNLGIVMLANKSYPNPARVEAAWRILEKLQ

[7] = test system: P99/Q908R/Citro.F. β-lactamases; conditions: enzymes P99/Q908R/Citro.F.; cited from earlier work
[8] = target: β-lactamase from C. Freundii (Citrobacter freundii, UniProt P05193); assay: Inhibitory activity (Ki) on nitrocefin hydrolysis by β-lactamase; format: biochemical
β-lactamase from C. Freundii, sequence (P05193 21-381): as above
Source text: (§1) The choice of the inhibitor depends on the kinetic parameters and on the possibilities of coupling with the hapten to be assayed (presence of functional groups which are not essential for the inhibitory activity). At the enzymatic level, the ideal inhibitor should have a kcat which is as low as possible (very slow rate of degradation) while having a Km which is as low as possible (high affinity for the enzyme) . In the case of the inhibition reactions envisaged, the Km value is close to the constant Ki. The Km can therefore be estimated from an evaluation of the Ki. This is obtained from kinetic measurements carried out in the presence of a reporter substrate with known characteristics, and this in the presence of a variable quantity of inhibitor. The ideal inhibitor should also have a rate constant k+1 (corresponding to the step of binding of the inhibitor to the enzyme) which is as high as possible. Based on this principle, it has been possible to select five inhibitors. They are:
(§2) The measurements were carried out on β-lactamases from different bacterial strains: Enterobacter cloacae P99, Escherichia coli and Citrobacter freundii, symbolized by: P99, E. Coli and C. Freundii.
(§3) The measurements are divided into four parts. […] The second is an evaluation of the inhibitory activity of the inhibitors (Table 9). The third groups together the measurements of enzymatic activity in order to determine the quantity of antibody to be used in the assay. The fourth part comprises the assay of the haptens.
(§4) By way of example, the results of a selective study carried out on this compound are provided. The results presented in Table 9 give the values obtained according to a similar method. […] These measurements determine the concentrations of inhibitor (I) to be used during the assay.

[9] = target: T3, β-lactamase from E. Coli (Escherichia coli, UniProt P00811); assay: as above; format: biochemical
T3 sequence (P00811 20-377): as the sequence (P00811 20-377) above
Source text: as §1, §2, §3, §4

[10] = target: T4, β-lactamase from Enterobacter cloacae P99 (Enterobacter cloacae, UniProt P05364); assay: as above; format: biochemical
T4 construct: host or cells: Enterobacter cloacae P99 (strain of origin as printed)
Source text: as §1, §2, §3, §4

[11] = target: T3, β-lactamase from E. Coli; assay: Inhibitory activity in the presence of anti-nandrolone antibodies; format: biochemical; conditions: for V1: without antibodies
Source text: (§5) The objective of these measurements, by way of example, is the evaluation of the restoration of the predominant part of the enzymatic activity in the presence of a precise quantity of inhibitor.

[12] = target: T5, β-lactamase from P99 (Enterobacter cloacae, UniProt P05364); assay: as above; format: biochemical; conditions: P99, [S] 60, [E] 0.25, [I] 0.2 μM
T5 construct: host or cells: Enterobacter cloacae P99 (strain of origin as printed)
Source text: as §5

[13] = C. Freundii [E] 0.375 nM, [S] nitrocefin 60 μM, [I] 0.1 μM
[14] = C. Freundii [E] 0.375 nM, [S] nitrocefin 60 μM, [I] 0.2 μM
[15] = E. Coli [E] 1 nM, [S] nitrocefin 150 μM, [I] 0.2 μM
[16] = E. Coli [E] 1 nM, [S] nitrocefin 150 μM, [I] 0.4 μM
[17] = P99 [E] 0.0625 nM, [S] nitrocefin 50 μM, [I] 0.1 μM
[18] = P99 [E] 0.0625 nM, [S] nitrocefin 50 μM, [I] 0.3 μM
[19] = P99 [E] 0.0625 nM, [S] nitrocefin 50 μM, [I] 0.4 μM
[20] = P99 [E] 0.0625 nM, [S] nitrocefin 50 μM, [I] 0.5 μM
[21] = P99 [E] […], [S] nitrocefin 60 μM, [I] 0.2 μM
[22] = P99 [E] […], [S] nitrocefin 60 μM, [I] 0.24 μM

CO/N=C(\C(=O)N[C@@H]1C(=O)N2C(C(=O)O)=C(COC(C)=O)CS[C@H]12)c1csc(N)n1 [Cefotaxime]
Km ([1]; enzyme P99/Q908R): 0.01 µM
kcat ([1]; enzyme P99/Q908R): 0.01 S^−1
Km [2]: 1.7 µM
kcat [2]: 0.17 S^−1

Cc1onc(-c2ccccc2)c1C(=O)N[C@@H]1C(=O)N2[C@@H]1SC(C)(C)[C@@H]2C(=O)O [Oxacillin]
Km [3]: 0.0005 µM
kcat [3]: 0.005 S^−1
Ki [4]: 0.5 nM
kcat [5]: 0.005 s⁻¹

COc1cccc(OC)c1C(=O)N[C@@H]1C(=O)N2[C@@H]1SC(C)(C)[C@@H]2C(=O)O [Methicillin]
Km ([1]; enzyme P99/Q908R): 0.03 µM
kcat ([1]; enzyme P99/Q908R): 0.007 S^−1
Km [2]: 0.15 µM
kcat [2]: 0.08 S^−1
Km [6]: 0.002 µM
kcat [6]: 0.01 S^−1

Cc1nnc(SCC2=C(C(=O)O)N3C(=O)[C@@H](NC(=O)Cn4cnnn4)[C@H]3SC2)s1 [Cefazolin]
Km [2]: 400 µM
kcat [2]: 3000 150 S^−1

CC1(C)S[C@@H]2[C@H](NC(=O)[C@H](C(=O)O)c3ccsc3)C(=O)N2[C@H]1C(=O)O [Ticarcillin]
Km [3]: 0.25 µM
kcat [3]: 0.045 S^−1

CC(=O)OCC1=C(C(=O)O)N2C(=O)[C@@H](NC(=O)CC#N)[C@H]2SC1 [Cephaestrile]
Km ([1]; enzyme P99/Q908R): 140 µM
kcat ([1]; enzyme P99/Q908R): 143 S^−1

CC(=O)OCC1=C(C(=O)O)N2C(=O)[C@@H](NC(=O)[C@H](N)c3ccccc3)[C@H]2SC1 [Cephaglycine]
kcat ([1]; enzyme P99/Q908R): 1 S^−1
Km ([1]; enzyme P99/Q908R, read-out: Km): 2 µM

O=C(Cc1cccs1)N[C@@H]1C(=O)N2C(C(=O)[O-])=C(C[n+]3ccccc3)CS[C@H]12 [Cephaloridine]
Km ([1]; enzyme P99/Q908R): 70 µM
kcat ([1]; enzyme P99/Q908R): 650 S^−1
Km [2]: 170 µM
kcat [2]: 130 S^−1
Km [6]: 35 µM
kcat [6]: 700 S^−1

CC1(C)S[C@@H]2[C@H](NC(=O)C(C(=O)O)c3ccccc3)C(=O)N2[C@H]1C(=O)O (stereo partly shown) [Carbenicillin]
Km ([1]; enzyme P99/Q908R): 0.01 µM
kcat ([1]; enzyme P99/Q908R): 0.002 S^−1
Km [2]: 0.02 µM
kcat [2]: 0.003 S^−1
Ki [4]: 10 nM
Km [6]: 0.0005 µM
kcat [6]: 0.004 S^−1

O=C(Cc1cccs1)N[C@@H]1C(=O)N2C(C(=O)O)=C(/C=C/c3ccc([N+](=O)[O-])cc3[N+](=O)[O-])CS[C@H]12 [Nitrocephin]
kcat ([1]; P99 enzyme, nitrocefin as reporter substrate): 780 s⁻¹
kcat ([1]; enzyme P99/Q908R): 780 S^−1
Km ([1]; enzyme P99/Q908R, read-out: Km): 25 µM
Km [2]: 500 µM
kcat [2]: 500 S^−1
Km [6]: 12 µM
kcat [6]: 300 S^−1

CC1=C(C(=O)O)N2C(=O)[C@@H](NC(=O)[C@H](N)c3ccccc3)[C@H]2SC1 [Cephalexin]
kcat ([1]; enzyme P99/Q908R): 100 S^−1
Km ([1]; enzyme P99/Q908R, read-out: Km): 10 µM
Km [2]: 4 µM
kcat [2]: 38 S^−1

CC(=O)OCC1=C(C(=O)O)N2C(=O)[C@@H](NC(=O)CCC[C@@H](N)C(=O)O)[C@H]2SC1 [Cephalosporin C]
kcat ([1]; enzyme P99/Q908R): 1100 S^−1
Km ([1]; enzyme P99/Q908R, read-out: Km): 400 µM

CC(=O)OCC1=C(C(=O)O)N2C(=O)[C@@H](NC(=O)Cc3cccs3)[C@H]2SC1 [Cephalothin]
Km ([1]; enzyme P99/Q908R): 15 µM
kcat ([1]; enzyme P99/Q908R): 200 S^−1
Km [2]: 42 µM
kcat [2]: 300 S^−1

CO/N=C(\C(=O)N[C@@H]1C(=O)N2C(C(=O)O)=C(COC(N)=O)CS[C@H]12)c1ccco1 [Cefuroxime]
Km ([1]; enzyme P99/Q908R): 0.02 µM
kcat ([1]; enzyme P99/Q908R): 0.04 S^−1
Km [2]: 0.15 µM
kcat [2]: 0.15 S^−1
Km [5]: 0.02 µM

CC1(C)S[C@@H]2[C@H](NC(=O)Cc3ccccc3)C(=O)N2[C@H]1C(=O)O [Benzylpenicillin]
Km [2]: 4.4 µM
kcat [2]: 45 S^−1
Km [7]: 0.5 µM
kcat [7]: 20 S^−1

CC1(C)S[C@@H]2[C@H](NC(=O)C(C(=O)O[C@H]3CC[C@H]4[C@@H]5CCC6=CC(=O)CC[C@@H]6[C@H]5CC[C@]34C)c3ccccc3)C(=O)N2[C@H]1C(=O)O (stereo partly shown) [Conjugate 1, nandrolone carbenicillinate]
V0/V1 1 [8, 13]: 0.15
V1 [8, 13]: 209 nM/s
V0/V1 1 [8, 14]: 0.47
V1 [8, 14]: 163 nM/s
Ki [8, 13]: 80 nM
Ki [8, 14]: 62 nM
Ki ([8]; C. Freundii, summary value of the two determinations): 71 nM
V0/V1 1 [9, 15]: 0.19
V1 [9, 15]: 260 nM/s
V0/V1 1 [9, 16]: 0.41
V1 [9, 16]: 220 nM/s
Ki [9, 15]: 800 nM
Ki [9, 16]: 760 nM
Ki ([9]; E. Coli, summary value of the two determinations): 780 nM
Ki ([10]; P99, summary value of the six determinations): 74 nM
Ki [10, 17]: 76 nM
Ki [10, 18]: 62 nM
Ki [10, 19]: 65 nM
Ki [10, 20]: 74 nM
Ki [10, 21]: 88 nM
Ki [10, 22]: 78 nM
Ki ([10]; enzyme from P99): 70 nM
V0/V1 1 [10, 17]: 0.44
V1 [10, 17]: 36 nM/s
V0/V1 1 [10, 18]: 1.6
V1 [10, 18]: 20 nM/s
V0/V1 1 [10, 19]: 2.06
V1 [10, 19]: 17 nM/s
V0/V1 1 [10, 20]: 2.25
V1 [10, 20]: 16 nM/s
V0/V1 1 [10, 21]: 0.66
V1 [10, 21]: 131 nM/s
V0/V1 1 [10, 22]: 0.88
V1 [10, 22]: 116 nM/s
Vab ([11]; [S] 150, [E] 1, [I] 0.24 μM, anti-nandrolone serum dil. 625 x): 307 nM/s
Vab ([11]; [S] 150, [E] 1, [I] 0.24 μM, anti-nandrolone serum dil. 714 x): 299 nM/s
V1 ([11]; [S] 150, [E] 1, [I] 0.24 μM): 210 nM/S
Vab ([11]; [S] 150, [E] 1, [I] 1 μM, anti-nandrolone serum dil. 100 x): 211 nM/s
Vab ([11]; [S] 150, [E] 1, [I] 1 μM, anti-nandrolone serum dil. 125 x): 210 nM/s
Vab ([11]; [S] 150, [E] 1, [I] 1 μM, anti-nandrolone serum dil. 140 x): 200 nM/s
Vab ([11]; [S] 150, [E] 1, [I] 1 μM, anti-nandrolone serum dil. 200 x): 174 nM/s
Vab ([11]; [S] 150, [E] 1, [I] 1 μM, anti-nandrolone serum dil. 500 x): 123 nM/s
V1 ([11]; [S] 150, [E] 1, [I] 1 μM): 90 nM/S
Vab ([12]; anti-nandrolone serum dil. 500 x): 200 nM/s
Vab ([12]; anti-nandrolone serum dil. 625 x): 200 nM/s
Vab ([12]; anti-nandrolone serum dil. 770 x): 189 nM/s
Vab ([12]; anti-nandrolone serum dil. 1000 x): 170 nM/s
V1 ([12]; without antibodies): 131 nM/S
